Reference: PubChem BioAssay AID248 (DTP/NCI, 2004)
Several values for one entry are separate records, joined by “and”; a condition that tells them apart may be missing. Equal entries are not always repeated. Toxic doses and inconclusive results are not listed.

Tested on: L1210 leukemia ip in BDF1 mice, survival T/C
Assay: NCI In Vivo Anticancer Drug Screen. Data for tumor model L1210 Leukemia (intraperitoneal) in B6D2F1 (BDF1) mice
Details: endpoint: mean survival time, higher = longer survival
How it was run: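 Survival endpoint. Drug-treated group vs vehicle group, expressed as T divided by C. Tumor passaged by transplantation.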

[1] = dose: 100.0 mg/kg/injection, schedule: Q01DX009 (ip), vehicle: Klucel (hydroxypropylcellulose) (HPC)
[2] = dose: 100.0 mg/kg/injection, schedule: Q01DX009 (ip), vehicle: saline with Tween-80
[3] = dose: 200.0 mg/kg/injection, schedule: Q01DX009 (ip), vehicle: saline with Tween-80
[4] = dose: 400.0 mg/kg/injection, schedule: Q01DX009 (ip), vehicle: saline with Tween-80
[5] = dose: 100.0 mg/kg/injection, schedule: Q04DX003 (ip), vehicle: Klucel (hydroxypropylcellulose) (HPC)
[6] = dose: 400.0 mg/kg/injection, schedule: Q04DX003 (ip), vehicle: Klucel (hydroxypropylcellulose) (HPC)
[7] = dose: 75.0 mg/kg/injection, schedule: Q01DX001 (ip), vehicle: saline
[8] = dose: 50.0 mg/kg/injection, schedule: Q01DX009 (ip), vehicle: saline with Tween-80
[9] = dose: 100.0 mg/kg/injection, schedule: Q01DX009 (ip), vehicle: saline
[10] = dose: 100.0 mg/kg/injection, schedule: Q01DX001 (ip), vehicle: saline with Tween-80
[11] = dose: 200.0 mg/kg/injection, schedule: Q01DX001 (ip), vehicle: saline with Tween-80

`CC1(c2cccc3ccccc23)NC(=O)c2ccccc2N1` (stereo not drawn) was tested, and the T/C (dose: 50.0 mg/kg/injection, schedule: Q01DX009 (ip), vehicle: Klucel (hydroxypropylcellulose) (HPC)) was 98 % of control, the T/C [1] was 103 % of control and the T/C (dose: 150.0 mg/kg/injection, schedule: Q01DX009 (ip), vehicle: Klucel (hydroxypropylcellulose) (HPC)) was 101 % of control.

For `CCOc1ccccc1NC(=O)Nc1cccc(F)c1`, the T/C [2] was 104 % of control, the T/C [3] was 96 % of control and the T/C [4] was 93 % of control.

`COc1cc([N+](=O)[O-])ccc1-c1c(C(=O)O)cccc1[N+](=O)[O-]` was tested, and the T/C [5] was 101 % of control, the T/C (dose: 200.0 mg/kg/injection, schedule: Q04DX003 (ip), vehicle: Klucel (hydroxypropylcellulose) (HPC)) was 95 % of control and the T/C [6] was 90 % of control.

With `ClC1=c2ccccc2=C2C(Cl)=c3ccccc3=C12` the T/C (dose: 50.0 mg/kg/injection, schedule: Q04DX002 (ip), vehicle: Klucel (hydroxypropylcellulose) (HPC)) was 97 % of control and the T/C (dose: 100.0 mg/kg/injection, schedule: Q04DX002 (ip), vehicle: Klucel (hydroxypropylcellulose) (HPC)) was 97 % of control.

`COc1cc2c(ccc3c4cc(OC)c(OC)cc4c[n+](C)c23)cc1O` was tested, and the T/C (dose: 80.0 mg/kg/injection, schedule: Q01DX009 (ip), vehicle: saline) was 159 % of control, the T/C [5] was 120 % of control and the T/C (dose: 320.0 mg/kg/injection, schedule: Q01DX009 (ip), vehicle: saline) was 161 % of control. For the same molecule, the T/C [6] was 120 % of control.

`c1ccc(NC2=NCCN2)nc1` was tested, and the T/C [7] was 93 % of control.

`C/C=C\CCCCCCC` was tested, and the T/C (dose: 50.0 mg/kg/injection, schedule: Q01DX001 (ip), vehicle: carboxymethylcellulose (CMC)) was 90 % of control, the T/C (dose: 100.0 mg/kg/injection, schedule: Q01DX001 (ip), vehicle: carboxymethylcellulose (CMC)) was 90 % of control and the T/C (dose: 200.0 mg/kg/injection, schedule: Q01DX001 (ip), vehicle: carboxymethylcellulose (CMC)) was 95 % of control. For the same molecule, the T/C (dose: 400.0 mg/kg/injection, schedule: Q01DX001 (ip), vehicle: carboxymethylcellulose (CMC)) was 90 % of control.

In the case of `Cc1cc2c(cc1C)N(C(=O)CN1CCCCC1)CC(=O)N2`, the T/C [7] is reported as 93 % of control, the T/C (dose: 150.0 mg/kg/injection, schedule: Q01DX001 (ip), vehicle: saline) is reported as 91 % of control and the T/C (dose: 300.0 mg/kg/injection, schedule: Q01DX001 (ip), vehicle: saline) is reported as 93 % of control.

For `C(=Nc1ccc(N=Cc2ccco2)cc1)c1ccco1`, the T/C (dose: 87.5 mg/kg/injection, schedule: Q01DX009 (ip), vehicle: Klucel (hydroxypropylcellulose) (HPC)) was 93 % of control, the T/C (dose: 175.0 mg/kg/injection, schedule: Q01DX009 (ip), vehicle: Klucel (hydroxypropylcellulose) (HPC)) was 100 % of control and the T/C (dose: 350.0 mg/kg/injection, schedule: Q01DX009 (ip), vehicle: Klucel (hydroxypropylcellulose) (HPC)) was 97 % of control.

For `COc1cccc(C(C)(C)CC(=O)O)c1`, the T/C [8] was 90 % of control, the T/C [2] was 90 % of control and the T/C [3] was 87 % of control.

`C(C#CC1CCCCC1)#CC1CCCCC1` was tested, and the T/C [9] was 94 % of control, the T/C (dose: 200.0 mg/kg/injection, schedule: Q01DX009 (ip), vehicle: saline) was 91 % of control and the T/C (dose: 400.0 mg/kg/injection, schedule: Q01DX009 (ip), vehicle: saline) was 94 % of control.

For `CCOCc1cnc(C)nc1N`, the T/C [10] was 94 % of control and the T/C [11] was 94 % of control.

With `C/C=C\c1ccc(OCCOC(=O)Nc2ccc(Cl)cc2C(F)(F)F)c(OC)c1` the T/C [2] was 91 % of control, the T/C [3] was 96 % of control and the T/C [4] was 89 % of control.

With `COC(=O)C(N)C(C)C` (stereo not drawn) the T/C (dose: 25.0 mg/kg/injection, schedule: Q01DX009 (ip), vehicle: water) was 100 % of control, the T/C (dose: 25.0 mg/kg/injection, schedule: Q04DX003 (ip), vehicle: water) was 106 % of control and the T/C (dose: 50.0 mg/kg/injection, schedule: Q01DX009 (ip), vehicle: water) was 102 % of control. For the same molecule, the T/C (dose: 50.0 mg/kg/injection, schedule: Q04DX003 (ip), vehicle: water) was 104 % of control, the T/C (dose: 100.0 mg/kg/injection, schedule: Q01DX009 (ip), vehicle: water) was 102 % of control and the T/C (dose: 100.0 mg/kg/injection, schedule: Q04DX003 (ip), vehicle: water) was 114 % of control. The T/C (dose: 200.0 mg/kg/injection, schedule: Q01DX009 (ip), vehicle: water) was 103 % of control, the T/C (dose: 200.0 mg/kg/injection, schedule: Q04DX003 (ip), vehicle: water) was 101 % of control and the T/C (dose: 400.0 mg/kg/injection, schedule: Q01DX009 (ip), vehicle: water) was 100 % of control. For the same molecule, the T/C (dose: 400.0 mg/kg/injection, schedule: Q04DX003 (ip), vehicle: water) was 104 % of control.

`COc1cc(OC)c(NC(=O)c2ccc([N+](=O)[O-])s2)cc1Cl` was tested, and the T/C (dose: 50.0 mg/kg/injection, schedule: Q01DX005 (ip), vehicle: saline) was 94 % of control, the T/C (dose: 100.0 mg/kg/injection, schedule: Q01DX005 (ip), vehicle: saline) was 94 % of control and the T/C (dose: 200.0 mg/kg/injection, schedule: Q01DX005 (ip), vehicle: saline) was 94 % of control.

With `NC1=NN(c2ccccc2)C(=O)/C1=C\c1ccccc1` the T/C [8] was 102 % of control, the T/C [2] was 98 % of control and the T/C [3] was 91 % of control.

In the case of `CCN(CC)CCN(Cc1ccccc1)C(=O)C(O)(c1ccccc1)c1ccccc1`, the T/C [10] is reported as 105 % of control and the T/C [11] is reported as 108 % of control.

With `COc1cc([N+](=O)[O-])ccc1NC(=O)Oc1cc(C)ccc1C(C)C` the T/C [1] was 103 % of control, the T/C (dose: 200.0 mg/kg/injection, schedule: Q01DX009 (ip), vehicle: Klucel (hydroxypropylcellulose) (HPC)) was 104 % of control and the T/C (dose: 400.0 mg/kg/injection, schedule: Q01DX009 (ip), vehicle: Klucel (hydroxypropylcellulose) (HPC)) was 104 % of control.

In the case of `CN(C)c1ccc(C(O)C(N)=O)cc1` (stereo not drawn), the T/C (dose: 6.25 mg/kg/injection, schedule: Q01DX001 (ip), vehicle: saline) is reported as 103 % of control, the T/C (dose: 12.5 mg/kg/injection, schedule: Q01DX001 (ip), vehicle: saline) is reported as 94 % of control and the T/C (dose: 25.0 mg/kg/injection, schedule: Q01DX001 (ip), vehicle: saline) is reported as 97 % of control.

`O=C(OCCN1CCCC1)C(c1ccccc1)C1(O)CCCC1` (stereo not drawn) was tested, and the T/C (dose: 25.0 mg/kg/injection, schedule: Q01DX009 (ip), vehicle: saline) was 103 % of control, the T/C (dose: 25.0 mg/kg/injection, schedule: Q04DX003 (ip), vehicle: saline) was 104 % of control and the T/C (dose: 50.0 mg/kg/injection, schedule: Q01DX009 (ip), vehicle: saline) was 102 % of control. For the same molecule, the T/C (dose: 50.0 mg/kg/injection, schedule: Q04DX003 (ip), vehicle: saline) was 101 % of control, the T/C [9] was 117 % of control and the T/C (dose: 100.0 mg/kg/injection, schedule: Q04DX003 (ip), vehicle: saline) was 96 % of control and 97 % of control.

`Cc1cc(C)nc(NCCCC(N)C(=O)O)n1` (stereo not drawn) was tested, and the T/C (dose: 100.0 mg/kg/injection, schedule: Q04DX002 (ip), vehicle: saline with Tween-80) was 100 % of control, the T/C (dose: 200.0 mg/kg/injection, schedule: Q04DX002 (ip), vehicle: saline with Tween-80) was 95 % of control and the T/C (dose: 400.0 mg/kg/injection, schedule: Q04DX002 (ip), vehicle: saline with Tween-80) was 92 % of control.

`COc1ccc(CC(=O)Cc2ccc(OC)c(OC)c2)cc1OC` was tested, and the T/C [2] was 93 % of control, the T/C (dose: 100.0 mg/kg/injection, schedule: Q04DX003 (ip), vehicle: saline with Tween-80) was 100 % of control and the T/C [3] was 98 % of control. For the same molecule, the T/C (dose: 200.0 mg/kg/injection, schedule: Q04DX003 (ip), vehicle: saline with Tween-80) was 108 % of control, the T/C [4] was 102 % of control and the T/C (dose: 400.0 mg/kg/injection, schedule: Q04DX003 (ip), vehicle: saline with Tween-80) was 100 % of control.

In the case of `N#CC(C#N)=Cc1cc(Cl)ccc1O`, the T/C (dose: 100.0 mg/kg/injection, schedule: Q01DX001 (ip), vehicle: saline) is reported as 96 % of control and the T/C (dose: 200.0 mg/kg/injection, schedule: Q01DX001 (ip), vehicle: saline) is reported as 96 % of control.
